The text below walks through data of US20170360761A1, “Selective Inhibition of HDAC6 and HDAC8, and Methods of Use Thereof” (Reaction Biology Corp., priority 2016, published 2017).

Common to all, as to assay type: cell-based
In one experiment the test system is U266 cells. The experiment can be described thus: MTS cell viability assay, U266 cells. The note with it: Homo sapiens, U-266, 72 hours incubation. How it is done:
(§1) About 2000-5000 of U266 cells, REH cells, K562 cells, KMS-11 cells, RPMI-8226 cells and MM. 1S cells were incubated with RBC-2008 in 384 well assay plates at 37° C., 5% CO2 for 72 hours. An amount of 5 μl of CellTiter 96® AQueous One Solution Reagent (MTS assay reagent) from Promega was added to each well and incubated for 3 hours. Absorbance at 492 nm was recorded by Envision Multilabel Reader. The IC50 curves were plotted and the IC50 values were calculated using the GraphPad Prism 4 program based on sigmoidal dose-response equation. […] 1S cells respectively (FIG. 8).
A general note: Tetrazolium dyes change colour on reduction, which living cells bring about.

Another experiment deals with REH cells. Put plainly: MTS cell viability assay, REH cells. The note with it: Homo sapiens, 72 hours incubation. How it is done: as §1
A further experiment concerns K562 cells. The experiment can be described thus: MTS cell viability assay, K562 cells. The note with it: Homo sapiens, 72 hours incubation. How it is done: The effects of RBC-2008 on the viability of human tumor cell were assessed in an MTS assay. K562 cells were incubated with RBC-2008 in 384 well assay plates at 37° C., 5% CO2 for 72 hours. 5 μl of CellTiter 96® AQueous One Solution Reagent (MTS assay reagent) from Promega was added to each well and incubated for 3 hours. Absorbance at 492 nm was recorded using an Envision Multilabel Reader. The IC50 curves were plotted and the IC50 values were calculated using the GraphPad Prism 4 program based on a sigmoidal dose-response equation (FIG. 5).
as §1

A further experiment concerns KMS-11 cells. Put plainly: MTS cell viability assay, KMS-11 cells. The note with it: Homo sapiens, 72 hours incubation. As for the experimental part: as §1
The next experiment deals with RPMI-8226 cells. The experiment can be described thus: MTS cell viability assay, RPMI-8226 cells. The note with it: Homo sapiens, 72 hours incubation. How it is done:
as §1

The test system of another experiment is MM. 1S cells. The experiment can be described thus: MTS cell viability assay, MM. 1S cells. Particulars: Homo sapiens, MM1.S, 72 hours incubation. As for the experimental part: as §1

For orientation: IC50 means the concentration needed to halve the response being measured. As for `O=C(NO)c1ccc(Cn2sc3ccccc3c2=O)cc1` [RBC-2008], the IC50 turned out to be 14.5 µM in the experiment on U266 cells; 1.8 µM with REH cells; 13.1 µM in the experiment on K562 cells; 2.5 µM in the experiment on KMS-11 cells; 3.8 µM in the experiment with RPMI-8226 cells; 2.1 µM in the experiment with MM. 1S cells.
